This is an account of results in US6162806A, “Active oxygen scavengers containing pterin derivatives” (Artemis, Inc., priority 1996, dated 2000).

The subject of data set [1] is delayed neuronal death (DND) in the cerebral hippocampus area. Nature of the data set: Suppression of delayed neuronal death in transient cerebral ischemia model gerbils (MAP2 staining of hippocampus). Format: in vivo, gerbil. The note with it: 50 mM in physiological saline (1 ml) intraperitoneally 30 minutes after resumption of bloodstream, after 1 week. The protocol:
A neck of each gerbil (body weigh=approximately 80 g) under a general anesthesia was incised. Ambilateral carotids were visually ligated with clips to cut off a bloodstream. After 5 minutes, the bloodstream was resumed, and the incision was sutured. After 30 minutes from the resumption of the bloodstream, physiological saline (1 ml) was intraperitoneally administered to a control group of the gerbils, whereas 50 mM of 6-formyl-pterin in physiological saline (1 ml) was intraperitoneally administered to an administering group of the gerbils. Thereafter, gerbils came out from anesthesia and then were bred for 1 week. Then, a brain was extirpated from each gerbil under a general anesthesia. Tissue slices were prepared from the brain and stained with microtubule-associated protein 2 (MAP2) which can specifically stain neurons, to evaluate the degree of delayed neuronal death (DND) in the cerebral hippocampus area.
FIG. 3 is a photomicrograph of a slice of a cerebral hippocampus tissue from a completely normal gerbil which had not encountered hemostasis, FIG. 4 is a photomicrograph of a slice of a cerebral hippocampus tissue from the control group, and FIG. 5 is a photomicrograph of a slice of a cerebral hippocampus tissue from the 6-formyl-pterin-administering group. […]

The nature of data set [2]: Active oxygen scavenging activity, active oxygen derived from potassium superoxide in DMSO (electron spin resonance spectroscopy). The note with it: ESR at 77K, vs no addition. The protocol: Potassium superoxide (KO2) (28 mg) was added to dimethyl sulfoxide (DMSO) (20 ml) to prepare a saturated solution so that active oxygens were generated in DMSO. As a standard substance, 2,2,6,6-tetramethylpiperidine-N-oxide (TEMPO) was used. TEMPO was dissolved in DMSO in the concentrations of 0.1, 0.3, 0.5, 0.7, 1, 1.2, or 1.5 mM. The electron spin resonance signals obtained (measured at 77K) were integrated to prepare a standard curve.

For data set [3], the system named is rats. Nature of the data set: Acute toxicity, intravenous. Format: in vivo, rat. The note with it: 6 mg/kg intravenously; 10 rats; observed for 3 months. The text has this:
Acute toxicity of 6-formyl-pterin was examined, using rats.

Data set [4] concerns active oxygens generated by PMA-stimulated polymorphonuclear leukocytes (PMN). The experiment in a line: Active oxygen scavenging activity, PMN-PMA system (CLA chemiluminescence). Format: cell-based, human (healthy adult). The note with it: 37° C., approximately 10 minutes. The protocol: Venous blood (10 ml) was taken from a healthy adult, and polymorphonuclear leukocytes (abbreviated to PMN) were isolated therefrom. The leukocytes were suspended in HBSS (Hanks' balanced salt solution) to approximately 1×10^6 cells/ml. 2-Methyl-6-phenyl-3,7-dihydroimidazo-(1,2-a)-pyrazin-3-on (hereinafter referred to as CLA) as a chemiluminescent compound, that is, a compound which may generate chemiluminescence due to the presence of active oxygens, was dissolved in a phosphate buffered saline (hereinafter referred to as PBS) to the concentration of 50 μM. Phorbol myristate acetate (abbreviated to PMA) as a polymorphonuclear leukocyte stimulating agent, that is, a compound which may generate active oxygens by stimulating polymorphonuclear leukocytes, was dissolved in PBS to the concentration of 20 μg/ml. The PMN suspension, the CLA solution, and the PMA solution were cooled with ice for storage until use for measurement.
6-Formyl-pterin as the active ingredient of the active oxygen scavenger according to the present invention was dissolved in PBS to the concentrations of 100 μM, 250 μM, or 500 μM, and then warmed to 37° C. before measurement. PBS as a control was also warmed to 37° C. before measurement.
To polymorphonuclear leukocytes isolated from 2 ml of the PMN suspension by centrifugation, the 6-formyl-pterin solutions of various concentrations or PBS were added to adjust total volume to 1930 μl. The mixtures were poured into test tubes and warmed at 37° C. for 15 minutes. After adding the CLA solution (50 μl), the mixture was placed in a chemiluminescence reader and the measurement of an amount of chemiluminescence was started. After 1 minute from the beginning of the measurement, the PMA solution (20 μl) was injected into the test tube with a syringe. The measurement was performed at 37° C. for approximately 10 minutes while monitoring every 10 seconds.
FIG. 1 is a graph showing a total chemiluminescence amount obtained by accumulating chemiluminescence amounts measured every 10 seconds.

For data set [5] the following is noted: literature; cited from earlier work.
For data set [6] the following is noted: background art; cited from earlier work.

In the case of `Nc1nc2ncc(C=O)nc2c(=O)[nH]1` [6-formyl-pterin], in data set [1], the delayed neuronal death entry was “suppressed”. Besides, the “state of neurons in cerebral hippocampus tissue slice (FIG. 5)” value in data set [1] (control: neurons completely dropped) is reported as “many neurons were living”. The “amount of active oxygens generated from KO2” value in data set [2] (1 mM 6-formyl-pterin) was “almost disappeared”; in data set [2] (from 0.1 mM 6-formyl-pterin), “lowered”. In data set [3], the “death (acute toxicity)” value is “No death was observed”. In addition, the “amount of chemiluminescence, i.e., the amount of active oxygens” value in data set [4] (100 μM, vs PBS control (FIG. 1, curve b)) was “significantly suppressed”; in data set [4] (250 μM, vs PBS control (FIG. 1, curve c)) it was “almost disappeared”; in data set [4] (500 μM, vs PBS control (FIG. 1, curve d)), “almost disappeared”.
Take `Nc1nc2ncc([C@H](O)[C@H](O)CO)nc2c(=O)[nH]1` [NP, 2-amino-4-oxo-6-(D-erythro-1',2',3'-trihydroxypropyl)-pteridine]: the “antioxidative activity against active oxygens” value in data set [5] was “antioxidative activity against active oxygens”.
With `Nc1nc2c(c(=O)[nH]1)NC([C@H](O)[C@H](O)CO)CN2` (some centres unmarked) [NPH4, 5,6,7,8-tetrahydroneopterin], the teratogenicity result in data set [6] is listed as “exhibits teratogenicity”. In data set [5], the “antioxidative activity against active oxygens” value is “potent antioxidative activity”.
